From patent publication US20250049932A1, “CYTOTOXICITY TARGETING CHIMERAS FOR FOLATE RECEPTOR-EXPRESSING CELLS” (GLAXOSMITHKLINE INTELLECTUAL PROPERTY DEVELOPMENT LIMITED, priority 2022, published 2025)
Where “and” joins values, the source holds several entries; their conditions need not be identical. Equal values may be shown once.

Molecular target: T1, FOLR (Homo sapiens, UniProt P15328)
T1 construct: Target cells: IGROV1 cells (typically 1000-20,000 cells per well); endogenous in cells; host or cells: IGROV1 cells
Test: Antibody dependent cellular cytotoxicity (ADCC) reporter assay
Type: cell-based
Settings: IGROV1 target cells; anti-cotinine antibody (SEQ ID NO: 11/12, human IgG1 Fc S239D/I332E); Jurkat FcγRIIIa NFAT-luciferase reporter cells; about 12-18 hours; one value per experimental run; EC50 in molar (M); footnote: pEC50 < 5 = inactive
Procedure: An antibody dependent cellular cytotoxicity (ADCC) reporter assay was conducted using the following four assay components: (i) ARM compound of Formula (I) targeting FOLR (concentrations ranging from 1 pM to 10 μM); (ii) anti-cotinine antibody having a heavy chain sequence of SEQ ID NO: 11 and a light chain sequence of SEQ ID NO: 12 (rabbit variable region with human IgG1 Fc domain containing DE mutation (S239D/I332E)) (concentrations ranging from 0.01 μg/mL-200 μg/mL); (iii) Target cells: IGROV1 cells (typically 1000-20,000 cells per well); and (iv) Reporter cells—Jurkat cells engineered to express FcγRIIIa with a reporter gene luciferase under the control of the NFAT promoter (typically 3000-75,000 cells per well). Reagents were combined in final volume of 20 μL in 384-well tissue culture treated plate. […]
Luminescence signal was measured on a microplate reader capable of measuring luminescence and signal: background was calculated by dividing the signal of a test well by the signal obtained when no compound of formula (I) was included in the assay. […]
ARMs compounds of Formula (I) were tested for ADCC activity in the above assay in one or more experimental runs and the results are shown in Table 3 below. […] The pEC50 value is the negative log of the EC50 value, wherein the EC50 value is half maximal effective concentration measured in molar (M). […]

T1 sequence (P15328 25-234 limits assumed): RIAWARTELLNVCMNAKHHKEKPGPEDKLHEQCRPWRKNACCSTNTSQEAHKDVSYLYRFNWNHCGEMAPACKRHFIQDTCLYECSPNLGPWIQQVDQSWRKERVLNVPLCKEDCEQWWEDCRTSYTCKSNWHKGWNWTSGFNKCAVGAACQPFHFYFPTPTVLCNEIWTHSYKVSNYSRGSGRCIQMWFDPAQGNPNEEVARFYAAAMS

Compound | EC50 | ADCC Reporter Assay pEC50
CN1C(=O)C[C@H](C(=O)NCCO[C@H]2CC[C@H](OCCCC(=O)N[C@H]3CC[C@H](C(=O)NCCNC(=O)CC[C@H](NC(=O)c4ccc(NCc5cnc6nc(N)[nH]c(=O)c6n5)cc4)C(=O)O)CC3)CC2)[C@H]1c1cccnc1 (racemic) [Example 2, N2-(4-(((2-Amino-4-oxo-3,4-dihydropteridin-6-yl)methyl)amino)benzoyl)-N5-(2-((1R,4S)-4-(4-(((1S,4R)-4-(2-((2S,3S)-1-methyl-5-oxo-2-(pyridin-3-yl)pyrrolidine-3-carboxamido)-ethoxy)cyclohexyl)oxy)butanamido)cyclohexane-1-carboxamido)ethyl)-L-glutamine] | 6.31e-08 M and 7.94e-08 M | –
CN1C(=O)C[C@H](C(=O)NCCNC(=O)CC[C@H](NC(=O)c2ccc(NCc3cnc4nc(N)[nH]c(=O)c4n3)cc2)C(=O)O)[C@H]1c1cccnc1 [Example 1, N2-(4-(((2-Amino-4-oxo-3,4-dihydropteridin-6-yl)methyl)amino)benzoyl)-N5-(2-((2S,3S)-1-methyl-5-oxo-2-(pyridin-3-yl)pyrrolidine-3-carboxamido)ethyl)-L-glutamine] | – | 4.5 and 4.8
